Measured values taken from patent US6537545B1, “Use of corneal hardening agents in enzymeorthokeratology” (ISTA Pharmaceuticals, Inc., priority 1998, dated 2003).

Legend:
Dutch Belted rabbit eyes = test: Slit lamp biomicroscopy including Rose Bengal staining (Example 2); format: in vivo
Experimental: This example further examines the safety of glyceraldehyde treatment in an animal model. The experiment described in Example 2 involved the study of six (6) pigmented Dutch Belted rabbits, two (2) in the control group and four (4) in glyceraldehyde treated experimental group. On Study Day 1, all rabbits received a thorough ophthalmic examination including slit lamp biomicroscopy and indirect ophthalmoscopy.
The slit lamp biomicroscopy was performed substantially as described in Example 1. However, Rose Bengal stain was used here applied using Rose Bengal Ophthalmic Strips (Barnes-Hind, Inc., Sunnyvale, Calif.). This procedure involved a sterile strip wetted in 0.9% sodium chloride applied to the […] and sciera of an examined rabbit. The rabbit was allowed to blink applying the stain and then the treated eye was examined. Slit lamp biomicroscopy including Rose Bengal staining was performed on Study Days 1 (baseline), 8, 9, 11, 15, 34, 45, and 63. The animals were scored and the results recorded using the criteria described in Example 1.
Following baseline examinations, the rabbits were anesthetized and received a corneal intrastromal injection of 500 IU of hyaluronidase in OD (right eye) only using the method described in Example 1.
The administration of the test agents in the form of topical eyedrops began on Study Day 8. The control animals were administered a Balanced Saline Solution (BSS) (IOLAB Corporation, Claremont, Calif.) four times a day in each eye. The experimental animals received a 3% glyceraldehyde solution. The glyceraldehyde solution was prepared under sterile conditions at Advanced Corneal Systems (Irvine, Calif.) by dissolving 18 grams of glyceraldehyde in 600 mL of 0.9% sodium chloride USP, sterile filtering, and aliquotting the 3% glyceraldehyde (w/v) solution into 10 ml droppers. The experimental rabbits received one drop of glyceraldehyde solution four times a day using the technique described in Example 1. The rabbits received topical drops for a total of 63 days.

cornea = test: Corneal elasticity, recovery from indentation by spherical glass indentor (Example 7); format: in vivo, human
Experimental: A precision spherical glass indentor was used to contact the corneal surface of subjects treated with the methods of the present invention to measure changes in corneal elasticity. The method used involved the application of the indentor, in the form of a small spherical ball to gently deflect into a test cornea to establish an initial deflection value. Measurements were taken by using an interferometer to view the deflection. Following this application, the relaxation period was measured by observing the change in the impression made by the indentor.
The indentation range of movement was characterized using a precision linear variable differential transducer (LVDT) device that measured the linear travel of a stage carrying the indentor probe. The average travel distance of the probe was established at approximately 700 micrometers. The contact depth of the indentor probe was measured by evaluating the corneal surface immediately after indentation and measuring the local height values caused by the probe contact. This value was measured to range from 266 to 300 micrometers.
A digital timer was used to mark the beginning and ending times during observation. Changes in the impression were readily observed during this period. The final end point was considered to be when the local fringe disturbance was recovered blending with the undisturbed neighboring fringes. […] However, given the time scales involved, the value of this error is considered to be small.
The method of inducing corneal inflection involved first contacting the test corneal with the indentor. After the initial contact with the cornea was established, the probe was moved forward into the cornea to a predetermined distance. Seven hundred microns was used to achieve adequate deflection. Topography was taken immediately after the deflection to record the impression made in the cornea. Observations of the cornea were then made at one (1) minute intervals to note the change in the impression made. […] Another topography was done after five (5) minutes to record the final condition of the impression. […]

[1] = tested on: Dutch Belted rabbit corneas; test: Safety of glyceraldehyde in rabbits, slit lamp examination scores (Example 1); format: in vivo; conditions: 500 IU hyaluronidase day 1, 3% glyceraldehyde 20 μL intrastromal day 8, then 1 drop three times a day, 50 days, control BSS
Excerpt: In this Example, the safety of treating Dutch Belted rabbit corneas with glyceraldehyde following administration of the corneal softening enzyme hyaluronidase was investigated. This study involved the use of five (5) pigmented Dutch Belted rabbits, two (2) in the control group and three (3) in the glyceraldehyde treated group.
All rabbits received a thorough slit lamp examination on the first day of the study to establish the baseline using the following technique. A Nikon FS-2 Slit Lamp was used for the examinations of the test animals. For each animal examined, the eyes were dilated by instilling one drop of 1.0% tropicamide (Bausch and Lomb, Tampa, Fla.) and 2.5% phenylephrine (Bausch and Lomb, Tampa, Fla.). The animal was then positioned in front of a slit lamp. The corneas of each animal were examined for edema and the surface area involved with edema was estimated. The anterior chambers of the animals were closely examined for chamber depth, aqueous cell and flare, and fibrin. The iris of each animal was examined for atrophy, symmetry, or synechiae. The lens was examined and cellular debris, capsule, or lens protein abnormalities were noted if present. The vitreous humor of each animal were then examined for the presence of cells or other abnormnalities. […]

day by which aqueous cell/flare was absent (Dutch Belted rabbit eyes; glyceraldehyde treated cohort had cell and flare at baseline): ≤ 14 days
changes to the structure of the eyes as compared to controls (Dutch Belted rabbit eyes; rabbits, 3% glyceraldehyde 1 drop four times a day, 63 days, 500 IU hyaluronidase in right eye only): no significant changes
Compound: O=CC(O)CO (stereo not drawn) [glyceraldehyde]
effect on resolution of baseline aqueous cell and flare (Dutch Belted rabbit eyes; rabbits, 3% glyceraldehyde drops four times a day): did not appear to impair the resolution of the cell and flare
time for cornea to recover from indentation (cornea; after about two weeks of glyceraldehyde solution drops): 20 to 30 s
change in corneal elasticity after treatment (cornea; glyceraldehyde solution drops, from more rapid indentation recovery): more elastic
clinical observations (slit lamp scores), statistical analysis vs control group [1]: no differences between the groups
